Laboratory results published in patent publication US9980949B2, “SNS-595 and methods of using the same” (Sunesis Pharmaceuticals, Inc., priority 2004, dated 2018).

Columns and labels:
HCT116 cells = experiment: Combination studies with SNS-595, MTT assay, median-effect Combination Index; type: cell-based; conditions: combination with SNS-595 at constant ratio, 72 hours, <0.90 synergistic, 0.90-1.10 additive, >1.10 antagonistic
Protocol: The final DMSO concentration was 1% in the assay plate. The treated cells were incubated for 72 hours at 37° C., 5% CO2 before adding 20 μl/well 3-[4,5-dimethylthiazol-2-yl]-2,5-diphenyltetrazolium bromide (MTT) for 1 hour followed by 100 μl/well N,N-dimethyl formamide/SDS lysis buffer for at least 16 hours. The plates were read for absorbance at a wavelength of 595 nm. The data was worked up using the median-effect method that quantifies the interaction using a Combination Index (calculated using the software for dose effect analysis, Calcusyn V2(Biosoft). A combination is said to be additive if it yields a Combination Index of 0.90-1.10. A combination is said to be synergistic if it yields a Combination Index less than 0.90 and a combination is said to be antagonistic if it yields a Combination Index of more than 1.10. All Combination Index calculations were at a Fa value of 0.5, the point where 50% of the cells were dead. See Table 2.

DNA-PK null cell line = experiment: Inhibition of cell growth (MTT) by SNS-595 in DNA-PK null cell line; type: cell-based; conditions: DNA-PK null cell line instead of HCT-116 cells
Protocol: (§1) HCT-116 colon cancer cells were plated at a density of approximately […] with 100 μl/well of RPMI-1640 media (supplemented with 10% fetal bovine serum, 1% antibiotic/antimycotic, and 1.5% sodium bicarbonate) in a 96-well clear tissue-culture treated plate for 24 hours at 37° C., 5% CO2. Some cells were treated with 100 nM wortmannin for 8-16 hours. SNS-595 was then added as a serial dilution, and cells were incubated for 72 hours at 37° C., 5% CO2. MTT (20 μl/well of a 5 mg/ml stock solution) was added for 1 hour, followed by N,N-dimethyl formamide/SDS lysis buffer for at least 16 hours. Absorbance was monitored at 595 nm and data were fit by nonlinear regression to determine the inhibition of cell growth (IC50) by SNS-595 in the absence and presence of wortmannin. […] Similar results were seen when DNA-PK null cell line (approximately a 10 fold sensitization) was used instead of HCT-116 cells.

[1] = test system: cells where G2 arrest is abrogated; experiment: Cytotoxicity in cells where G2 arrest is abrogated by caffeine; type: cell-based; conditions: caffeine inhibits both ATM and ATR
Source text: As shown by FIG. 1, ATM, ATR, and DNA-PK are three central DNA sensors/effectors that depending on the level of DNA damage that is detected within an individual cell, direct the cell into one of several outcomes including DNA repair, G2 arrest or apoptosis.

[2] = test system: stable variant of HCT-116 cells; experiment: Sensitivity of a stable SNS-595-resistant variant of HCT-116 cells; type: cell-based; conditions: stable variant with induced resistance
Source text: Consistent with this mechanism, cells with induced resistance to SNS-595 also have alterations in the DNA-PK pathway. […] Conversely, decreased levels of DNA-PK or its activity (e.g. in the presence of an inhibitor) is associated with an increased sensitivity to SNS-595.

various cells = experiment: Cellular potency (EC50) in various cells; type: cell-based
Source text: (§2) SNS-595 is a cell cycle inhibitor and arrests cells at the G2 interface. Initially, the activity of SNS-595 was believed due to topoisomerase II inhibition.

[3] = test system: 2-deoxyglucose treated cells; experiment: Activity in cells with topoisomerase II levels modulated by 2-deoxyglucose; type: cell-based; conditions: topoisomerase II levels modulated using 2-deoxyglucose
Source text: as §2

DNA-PK pathway [4] = experiment: Dose-dependent responses of DNA-PK pathway members in HCT 116 cells (FIG. 2); type: cell-based; conditions: H2AX, c-Abl, p53, p73, p21, caspase-9, caspase-3
Source text: (§3) This damage impedes the ability of the cell to synthesize DNA and lengthens the time the cell spends in the S phase. […] When the DNA damage is sufficiently severe such that the double-strand breaks cannot be repaired through non-homologous end joining (NHEJ), the cell rapidly enters apoptosis. Some cells are able to reach the G2 phase but are subsequently arrested (mediated by cdc2/cyclin B) because the cells are too damaged to enter into the M phase and also eventually becomes apoptotic.

non-proliferating cells = type: cell-based
Source text: as §3, with “Treatment with SNS-595 results in an increase in the number of double-strand DNA breaks that form during the S phase. This” for “This”

topoisomerase II = experiment: Catalytic inhibition of topoisomerase II (decatenation and relaxation of supercoiled DNA); type: biochemical; conditions: inhibits decatenation and relaxation of supercoiled DNA, no formation of cleavable complexes
Source text: as §2

[5] = Pharmacokinetics of SNS-595 in cancer patients; type: in vivo, human; conditions: for C0: human, intravenous
Protocol: SNS-595 was administered to enrolled patients for up to six cycles. A cycle is defined as a three-week period, with SNS-595 administered on the first day of each cycle (day 0), followed by at least 21 days of observation. SNS-595 was administered to cohorts of at least 3 patients and dose escalation occurred by sequential cohort.

[6] = test system: HCT-116 colon cancer cells; experiment: Inhibition of cell growth (MTT) by SNS-595 in absence and presence of wortmannin; type: cell-based; conditions: HCT-116 cells, 100 nM wortmannin for 8-16 hours, 72 hours
Protocol: as §1

[7] = Solubility in acidic compositions; type: physicochemical; conditions: acidic compositions (<pH 4)
Protocol: An illustrative example of a suitable composition comprises: 10 mg SNS-595 per mL of aqueous solution of 4.5% sorbitol that is adjusted to pH 2.5 with methanesulfonic acid. One protocol for making such a solution includes the following for making a 100 mg/10 mL presentation: 100 mg of SNS-595 and 450 mg D-sorbitol are added to distilled water; the volume is brought up to a volume of 10 mL; and the pH of the resulting solution is adjusted to 2.5 with methanesulfonic acid. The resulting composition is also suitable for lyophilization. The lyophilized form is then reconstituted with sterile water to the appropriate concentration prior to use.

DNA-PK pathway [8] = experiment: Pharmacodynamic study: DNA-PK pathway members in HCT116 xenograft tumors (Western blots); type: in vivo, Nu/nu mice; conditions: IV bolus 20 or 40 mg/kg, 1-24 hours post dose, FIG. 3
Protocol: Nu/nu mice (ca. 25 grams) were injected with HCT116 cells (which were obtained from the ATCC) in the hind flank at 5 million cells with 50% matrigel (Becton-Dickinson). Tumors were allowed to grow to 400 mm^3. Xenograft bearing animals were then given either an IV bolus injection of SNS-595 (20 or 40 mg/kg) in the tail vein or a saline vehicle. At prescribed time points (1, 2, 4, 8, 16, and 24 hours post dose), animals were anesthetized with CO2, blood was taken via terminal cardiac puncture, and animals were sacrificed. Tumors were excised, pulverized using liquid nitrogen-cooled mortar and pestle, and flash-frozen in liquid nitrogen. Tumor lysates were made from pulverized samples by addition of lysis buffer. The protein concentrations of the DNA-PK pathway members were determined by Western blots. Approximately 25 micrograms of protein was loaded per lane on an SDS-PAGE gel. Proteins were separated by gel electrophoresis, blotted onto nitrocellulose membranes, and detected using the following antibodies: H2AX, phosphorylated at […] (Cell Signaling, catalog no. 2577L); p53, phosphorylated at S15 (Cell Signaling, catalog no. 9284S); p53, phosphorylated at S37 (Cell Signaling, catalog no. 9289S); p21 (Cell Signaling, catalog no. 2946); cdc2, phosphorylated at Y15 (Calbiochem, catalog no. 219437); cyclin B (Santa Cruz, catalog no. sc-594 (H-20)); p73, phosphorylated at […] […]

## N.N.O=C([O-])C1(C(=O)[O-])CCC1.[Pt+2] [Carboplatin]
HCT116 cells
  Combination Index @ Fa = 0.5: 0.54

## CC(=O)O[C@@]12CO[C@@H]1C[C@H](O)[C@@]1(C)C(=O)[C@H](O)C3=C(C)[C@@H](OC(=O)[C@H](O)[C@@H](NC(=O)OC(C)(C)C)c4ccccc4)C[C@@](O)([C@@H](OC(=O)c4ccccc4)[C@H]21)C3(C)C [Docetaxel]
HCT116 cells
  Combination Index @ Fa = 0.5: 2.00

## CC[C@H](CO)Nc1nc(NCc2ccccc2)c2ncn(C(C)C)c2n1 [Roscovitine]
HCT116 cells
  Combination Index @ Fa = 0.5: 1.10

## COC1=C2C[C@@H](C)C[C@H](OC)[C@H](O)[C@@H](C)/C=C(\C)[C@H](OC(N)=O)[C@@H](OC)/C=C\C=C(/C)C(=O)NC(=CC1=O)C2=O [Geldanamycin]
HCT116 cells
  Combination Index @ Fa = 0.5: 0.47

## N.N.[Cl][Pt][Cl] [Cisplatin]
HCT116 cells
  Combination Index @ Fa = 0.5: 0.54

## CN[C@H]1CN(c2ccc3c(=O)c(C(=O)O)cn(-c4nccs4)c3n2)C[C@@H]1OC [SNS-595, (+)-1,4-dihydro-7-[(3S,4S)-3-methoxy-4-(methylamino)-1-pyrrolidinyl]-4-oxo-1-(2-thiazoyl)-1,8-naphthyridine-3-carboxylic acid]
DNA-PK null cell line
  sensitization to SNS-595: ~10 fold
[1]
  difference in EC50 values, caffeine-treated (G2 arrest abrogated) versus untreated cells: essentially no difference in EC50 values
[2]
  sensitivity of resistant HCT-116 variant relative to HCT-116 cells: approximately ten fold less sensitive
Various cells
  difference in potency, cellular EC50 versus biochemical inhibition of topoisomerase II: at least a ten-fold difference in increased potency
[3]
  difference in activity between 2-deoxyglucose treated cells and untreated cells: essentially no difference in activity
DNA-PK pathway [4]
  activation of DNA-PK mediated repair and apoptotic cellular machinery: activates, in a dose dependent manner
non-proliferating cells
  lethality to non-proliferating cells: non-lethal to non-proliferating cells
Topoisomerase II
  IC50: ~5 µM
[5]; dose escalation by sequential cohort
  relation of dose to AUC∞: linear with AUC∞
[5]; 3 mg/m2, plasma, dose 3 mg/m^2
  C0: 153 ng/mL
[5]; 6 mg/m2, plasma, dose 6 mg/m^2
  C0: 377 ng/mL
[5]; 12 mg/m2, plasma, dose 12 mg/m^2
  C0: 2890 ng/mL
[5]; 24 mg/m2, plasma, dose 24 mg/m^2
  C0: 2920 ng/mL
[5]; 48 mg/m2, plasma, dose 48 mg/m^2
  C0: 1980 ng/mL
[5]; 60 mg/m2, plasma, dose 60 mg/m^2
  C0: 4800 ng/mL
[5]; plasma, dose 3 mg/m^2
  AUCINF_obs: 1139.55 ng·h/mL
  Cl_obs: 1.14 mL/min/kg
  Cmax: 138.80 ng/mL
  HL: 16.27 h
  MRTINF_obs: 21.95 h
  Vss_obs: 1.44 L/kg
  Vz_obs: 1.55 L/kg
[5]; plasma, dose 6 mg/m^2
  Cl_obs: 0.71 mL/min/kg
  Cmax: 347.00 ng/mL
  HL: 20.69 h
  Vss_obs: 1.24 L/kg
  Vz_obs: 1.28 L/kg
[5]; plasma, dose 12 mg/m^2
  AUCINF_obs: 6329.15 ng·h/mL
  Cl_obs: 0.76 mL/min/kg
  Cmax: 2246.67 ng/mL
  HL: 17.81 h
  Vss_obs: 1.07 L/kg
  Vz_obs: 1.17 L/kg
[5]; plasma, dose 24 mg/m^2
  AUCINF_obs: 12655.32 ng·h/mL
  AUClast: 11133.03 ng·h/mL
  Cl_obs: 0.83 mL/min/kg
  Cmax: 2703.33 ng/mL
  HL: 16.14 h
  Vss_obs: 1.06 L/kg
  Vz_obs: 1.15 L/kg
[5]; plasma, dose 48 mg/m^2
  AUCINF_obs: 27347.38 ng·h/mL
  Cl_obs: 0.99 mL/min/kg
  Cmax: 2868.00 ng/mL
  HL: 21.32 h
  Vss_obs: 1.48 L/kg
  Vz_obs: 1.57 L/kg
[5]; plasma, dose 60 mg/m^2
  Cl_obs: 0.83 mL/min/kg
  Cmax: 4537.50 ng/mL
  HL: 17.63 h
  Vss_obs: 1.08 L/kg
  Vz_obs: 1.20 L/kg
[6]
  IC50 lower in the presence of wortmannin than in its absence: 3-6 fold
[7]
  solubility: increased solubility
DNA-PK pathway [8]
  levels of DNA-PK pathway members in tumors upon treatment: activated in tumors

## COC[C@H]1OC(=O)c2coc3c2[C@@]1(C)C1=C(C3=O)[C@@H]2CCC(=O)[C@@]2(C)C[C@H]1OC(C)=O [Wortmannin]
HCT116 cells
  Combination Index @ Fa = 0.5: 0.42

## Cn1cnc2c(NCc3ccccc3)nc(NCCO)nc21 [Olomucine]
HCT116 cells
  Combination Index @ Fa = 0.5: 1.00
